From patent publication US12344610B2, “APOL1 inhibitors and methods of use” (Maze Therapeutics, Inc., priority 2022, dated 2025)

Tests used:
Type in all cases: cell-based
[1] = tested on: HEK293 clonal cell line overexpressing APOL1 G1; assay: APOL1 G1 HEK293 cell rescue assay (Example B3); conditions: Homo sapiens, HEK293, HEK293 clonal line overexpressing APOL1 G1; geometric mean of at least 2 runs; † = single run; ¥ = concentration at 50% rescue estimated (no sigmoidal curve)
Summary of the method: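 HEK293 clonal line overexpressing APOL1 G1; EC50 is half-maximal reversal of APOL1-induced cell death. Values are the geometric mean of ≥2 runs on separate days, each run the average of duplicate wells. Where no sigmoidal curve could be fitted, the concentration giving 50% rescue was estimated.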

APOL1 G2 = molecular target: T1, APOL1 G2 (Homo sapiens, UniProt O14791, DEL388-389); assay: APOL1-mediated calcium transport (calcium influx) assay, HEK T-REx/GCaMP6f/APOL1 G2 K6.3 cells, FLIPR TETRA; conditions: prevention of calcium influx; geometric mean of at least 2 assay runs; † = average of a technical replicate from a single assay run
T1 construct: expressed in transfected cells; host or cells: HEK293 T-REx clonal line stably expressing GCaMP6f (HEK T-REx/GCaMP6f/APOL1 G2 K6.3), doxycycline induced
T1 sequence (O14791 with tags, fused parts or gaps DEL388-389): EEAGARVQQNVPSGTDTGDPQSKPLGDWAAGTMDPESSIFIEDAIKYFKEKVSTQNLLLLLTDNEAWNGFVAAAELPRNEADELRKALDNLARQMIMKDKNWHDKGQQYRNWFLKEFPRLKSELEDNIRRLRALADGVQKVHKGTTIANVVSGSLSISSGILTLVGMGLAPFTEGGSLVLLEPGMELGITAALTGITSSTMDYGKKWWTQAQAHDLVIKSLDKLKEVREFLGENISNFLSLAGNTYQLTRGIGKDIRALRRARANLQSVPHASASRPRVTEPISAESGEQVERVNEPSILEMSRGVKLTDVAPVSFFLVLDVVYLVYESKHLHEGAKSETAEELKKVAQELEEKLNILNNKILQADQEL
Summary of the method: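 A HEK293 T-REx clone stably expressing GCaMP6f had APOL1 G2 induced with doxycycline (20 ng/mL solution added) for 6 h. Cells were then washed into Ca2+-free Tyrode's buffer (pH 7.4) and preincubated with compounds (duplicate 8-point) for 10 min at room temperature. Ca2+ injection to 5 mM final produced FLIPR GCaMP fluorescence, giving AC50 for influx inhibition (geometric mean, ≥2 runs).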

[2] = tested on: HEK293 cells overexpressing APOL1 G2; assay: APOL1 G2 HEK293 cell rescue assay (reversal of cell death caused by overexpression of APOL1); conditions: Homo sapiens, HEK293, HEK293 overexpressing APOL1 G2; geometric mean of at least 2 assay runs; † = single assay run
Summary of the method: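 EC50 is the half-maximal effective concentration for reversing cell death driven by APOL1 G2 overexpression in HEK293 cells. Reported as geometric mean of at least 2 runs on separate days, each run averaging duplicate wells per plate; some values from a single run.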

Structure (SMILES) | EC50 [1] [nM] | AC50 (APOL1 G2) [nM] | EC50 [2] [nM]
CC(C)(C(N)=O)c1ccc(OCCN2CCC3(CC2)C(=O)Nc2ccc(C#N)cc23)cc1 [Compound 257, 2-[4-(2-{5-cyano-2-oxo-1,2-dihydrospiro[indole-3,4′-piperidin]-1′-yl}ethoxy)phenyl]-2-methylpropanamide] | ~1000 | 974 | 256
NC(=O)c1ncc(OCCN2CCC3(CC2)C(=O)Nc2ccc(Cl)cc23)cn1 [Compound 258, 5-(2-{5-chloro-2-oxo-1,2-dihydrospiro[indole-3,4′-piperidin]-1′-yl}ethoxy)pyrimidine-2-carboxamide] | ~1300 | 1050 | 444
CC(COc1ccc(C2(S(C)(=O)=O)COC2)cc1)N1CCC2(CC1)C(=O)Nc1ccc(C#N)cc12 (stereo not drawn) [Compound 262, 1′-{1-[4-(3-methanesulfonyloxetan-3-yl)phenoxy]propan-2-yl}-2-oxo-1,2-dihydrospiro[indole-3,4′-piperidine]-5-carbonitrile] | 1780 | 2390 | 299
CN(C)c1ncc(OCCN2CCC3(CC2)C(=O)Nc2ccc(Cl)cc23)cn1 [Compound 303, 5-chloro-1′-(2-{[2-(dimethylamino)pyrimidin-5-yl]oxy}ethyl)-1,2-dihydrospiro[indole-3,4′-piperidin]-2-one] | 351 | 822 | 156
O=C1Nc2ccc(Cl)cc2C12CCN(CCOc1cnc(N3CC4(C3)CS(=O)(=O)C4)nc1)CC2 [Compound 304, 6-[5-(2-{5-chloro-2-oxo-1,2-dihydrospiro[indole-3,4′-piperidin]-1′-yl}ethoxy)pyrimidin-2-yl]-2λ^6-thia-6-azaspiro[3.3]heptane-2,2-dione] | 286 | 1010 | 134
CC1(O)CC(N2C(=O)CCc3cc(OCCN4CCC5(CC4)C(=O)Nc4ccc(Cl)cc45)cnc32)C1 (stereo not drawn) [Compound 315, 5-chloro-1′-(2-{[8-(3-hydroxy-3-methylcyclobutyl)-7-oxo-5,6,7,8-tetrahydro-1,8-naphthyridin-3-yl]oxy}ethyl)-1,2-dihydrospiro[indole-3,4′-piperidin]-2-one] | 86 | 330 | 25.7
O=C1CCc2cc(OCCN3CCC4(CC3)C(=O)Nc3ccc(C(F)F)cc34)cnc2N1C1CC(CO)C1 (stereo not drawn) [Compound 316, 5-(difluoromethyl)-1′-[2-({8-[3-(hydroxymethyl)cyclobutyl]-7-oxo-5,6,7,8-tetrahydro-1,8-naphthyridin-3-yl}oxy)ethyl]-1,2-dihydrospiro[indole-3,4′-piperidin]-2-one] | 99.4 | 1150 | 32.7
CC1(O)CC(CN2C(=O)CCc3cc(OCCN4CCC5(CC4)C(=O)Nc4ccc(C(F)F)cc45)cnc32)C1 (stereo not drawn) [Compound 320, 5-(difluoromethyl)-1′-[2-({8-[(3-hydroxy-3-methylcyclobutyl)methyl]-7-oxo-5,6,7,8-tetrahydro-1,8-naphthyridin-3-yl}oxy)ethyl]-1,2-dihydrospiro[indole-3,4′-piperidin]-2-one] | 53.9 | 787 | 22.1
[2H]C([2H])([2H])N1C(=O)C2(CCN(CCOc3ccc(C4CCN(S(C)(=O)=O)CC4)cc3)CC2)c2cc(Cl)ccc21 [Compound 412, 5-chloro-1′-{2-[4-(1-methanesulfonylpiperidin-4-yl)phenoxy]ethyl}-1-(^2H3)methyl-1,2-dihydrospiro[indole-3,4′-piperidin]-2-one] | 70.7 | 2900 | 45.3
[2H]C([2H])([2H])N1C(=O)C2(CCN(CCOc3ccc(S(C)(=O)=NC)c(C(F)(F)F)c3)CC2)c2cc(Cl)ccc21 (stereo not drawn) [Compound 413, 5-chloro-1-(^2H3)methyl-1′-(2-{4-[methyl(methylimino)oxo-λ^6-sulfanyl]-3-(trifluoromethyl)phenoxy)ethyl)-1,2-dihydrospiro[indole-3,4′-piperidin]-2-one] | 208 | 251 | 60.3
[2H]C([2H])([2H])N1C(=O)C2(CCN(CCOc3ccc(C4(S(=O)(=O)C(C)C)COC4)cc3)CC2)c2cc(Cl)ccc21 [Compound 414, 5-chloro-1-(^2H3)methyl-1′-(2-{4-[3-(propane-2-sulfonyl)oxetan-3-yl]phenoxy}ethyl)-1,2-dihydrospiro[indole-3,4′-piperidin]-2-one] | 110 | 347 | 36.7
[2H]C([2H])([2H])N1C(=O)C2(CCN(CCOc3ccc(C4(S(C)(=O)=O)CCC4)cc3)CC2)c2cc(Cl)ccc21 [Compound 415, 5-chloro-1′-{2-[4-(1-methanesulfonylcyclobutyl)phenoxy]ethyl}-1-(^2H3)methyl-1,2-dihydrospiro[indole-3,4′-piperidin]-2-one] | 69.2 | 319 | 20.3
[2H]C([2H])([2H])N1C(=O)C2(CCN(CCOc3ccc4c(c3)CN(C)C4=O)CC2)c2cc(Cl)ccc21 [Compound 416, 5-chloro-1-(^2H3)methyl-1′-{2-[(2-methyl-1-oxo-2,3-dihydro-1H-isoindol-5-yl)oxy]ethyl}-1,2-dihydrospiro[indole-3,4′-piperidin]-2-one] | 382 | 449 | 169
[2H]C([2H])([2H])N1C(=O)C2(CCN(CCOc3cnc4c(c3)CCC(=O)N4CC(C)(C)O)CC2)c2cc(Cl)ccc21 [Compound 417, 5-chloro-1′-(2-{[8-(2-hydroxy-2-methylpropyl)-7-oxo-5,6,7,8-tetrahydro-1,8-naphthyridin-3-yl]oxy}ethyl)-1-(^2H3)methyl-1,2-dihydrospiro[indole-3,4′-piperidin]-2-one] | 104 | 343 | 49.2
[2H]C([2H])([2H])N1C(=O)C2(CCN(CCOc3ccc(S(C)(=O)=O)cc3)CC2)c2cc(Cl)ccc21 [Compound 418] | 215 | 309 | 78.5
[2H]C([2H])([2H])N1C(=O)C2(CCN(CCOc3cnc4c(c3)CCC(=O)N4[C@H]3C[C@@](C)(O)C3)CC2)c2cc(Cl)ccc21 [Compound 419, 5-chloro-1-(^2H3)methyl-1′-[2-({7-oxo-8-[(1r,3s)-3-hydroxy-3-methylcyclobutyl]-5,6,7,8-tetrahydro-1,8-naphthyridin-3-yl}oxy)ethyl]-1,2-dihydrospiro[indole-3,4′-piperidin]-2-one] | 108 | 383 | 30.9
[2H]C([2H])([2H])N1C(=O)C2(CCN(CCOc3cnc(C4(CO)CC4)nc3)CC2)c2cc(Cl)ccc21 [Compound 420, 5-chloro-1′-[2-({2-[1-(hydroxymethyl)cyclopropyl]pyrimidin-5-yl}oxy)ethyl]-1-(^2H3)methyl-1,2-dihydrospiro[indole-3,4′-piperidin]-2-one] | 144 | 892 | 64.7
[2H]C([2H])([2H])N1C(=O)C2(CCN(CCOc3cc(F)c4c(c3)CCNS4(=O)=O)CC2)c2cc(Cl)ccc21 [Compound 421, 6-{2-[5-chloro-1-(^2H3)methyl-2-oxo-1,2-dihydrospiro[indole-3,4′-piperidin]-1′-yl]ethoxy}-8-fluoro-3,4-dihydro-2H-1λ^6,2-benzothiazine-1,1-dione] | 83.3 | 564 | 34.5
